Patent US8193192B2, “Heterocyclic FXR binding compounds” (Phenex Pharmaceuticals AG, priority 2006, dated 2012)
Values after ≈ are worked out from the molar mass of the structure shown.

Columns and labels:
[1] = Aqueous solubility assay, Protocol B, shake-flask method; type: physicochemical; conditions: 10 mM PBS buffer with 1% MeOH, kinetic from dmso stock, 10 mM PBS buffer pH 7.4, 1% MeOH, room temperature, read-out: Aqueous solubility pH 7.4 (μM) (±standard deviation), shake-flask method
Method: Aqueous solubility of compounds was determined by nephelometry or by shake-flask method as follows:
Protocol B, Shake-Flask Method:
Sample preparation: Sample and standard solution preparation is performed by mixing equal volumes of acetonitrile containing the internal standard (1 μM final concentration) with sample and calibration standard solutions (100 μl). After vigorously shaking (10 seconds) the samples are centrifuged (6000 g) for 5 minutes at 20° C. Aliquots of the particle-free supernatants are transferred to 200 μl sample vials and subsequently subjected to LC-MS/MS analysis. Assay procedure: Test concentration was 100 μM in 10 mM PBS buffer pH 7.4 with a final MeOH concentration of 1%. The volume of the incubation solution was 500 μl. Depending on each compound's solubility in MeOH, the stock concentration and the incubation concentration was adapted. The test solutions in quadruplicates were shaken at 300 rpm over a 20 hours period at room temperature, followed by centrifugation at 20000 g for 30 minutes to separate the solid phase. 100 μl of particle free sample are added to 100 μl acetonitrile containing the internal standard. The aqueous solubility of the compounds was determined by measuring the concentration of the PBS buffer supernatant by HPLC-MS/MS. Aqueous solubilities of examples and reference compounds are listed below in Table 3.

[2] = Plasma protein binding assay, filtration method; type: in vitro ADME; conditions: lithium-heparin plasma, mouse plasma, 37° C., one hour, read-out: Plasma protein binding (%) (±standard deviation) (converted)
Method: Plasma Protein Binding Assay
Plasma protein binding was determined using the filtration method:
Preparation of standards: working solutions were prepared for each calibration level by appropriate dilution of the corresponding stock solution. Calibration standards were prepared by spiking 147 μl PBS buffer with 3 μl of the corresponding working solution. Sample preparation: The sample and standard solution preparation was performed by mixing equal volumes of acetonitrile containing the internal standard (1 μM) with 75 μl sample, or 150 μl calibration standard solution, respectively. After vigorously shaking the samples were centrifuged (6000 g) for 5 minutes. Aliquots of the supernatants were subjected to LC-MS/MS analysis. Assay procedure: Compound stock solutions were diluted in acetonitrile to give a 50-fold concentrated working solution. The incubation solutions were prepared by adding 3 μl of a 50-fold concentrated working solution in acetonitrile to 147 μl of lithium-heparin plasma from mice giving an incubation concentration of 1 μM. […] The percentage of compound bound to plasma proteins (% PPB) was calculated using the following equation: PPB[%]=100−(concentrationcompound plasma filtrate/mean concentrationcompound filtrated plasma filtrate)×100.
Applying this protocol, plasmaprotein binding of examples and reference compounds was determined as listed below in Table 5.

[3] = Microsomal stability assay; type: in vitro ADME; conditions: pH 7.4; mouse liver microsomes, 37° C.
Method: Microsomal Stability Assay
In vitro assays were performed to evaluate the metabolic stability of test items in liver microsomes originating from mouse. Preparation of working standards of test items: Working solutions were prepared for each calibration level by appropriate dilution of the corresponding stock solution, depending on each compound's solubility in acetonitrile or acetonitrile/water. Calibration standards were prepared by spiking 196 μl standard matrix with 4 μl of the corresponding working solution. The standard matrix consists of 0.15 mg/ml of microsomal protein in phosphate buffer (100 mM pH 7.4), the final standard solutions contain 2% acetonitrile. The samples and standard solutions were extracted with ethyl acetate, isolation of the compounds was performed by addition of 600 μl ethyl acetate containing the internal standard (0.1 μM) to 200 μl sample and calibration standard. After vigorously shaking (10 minutes) and centrifugation (5000 g) the aqueous phase was separated by freezing in an acetone/dry ice bath and the organic phase is evaporated to dryness using a vacuum centrifuge. Samples were reconstituted in 200 μl acetonitrile/water mix (1:1 v/v) and subsequently subjected to LC-MS/MS. The incubation solution (180 μl) consisted of 90 μl of a microsomal suspension of 0.33 mg/ml of protein in phosphate buffer 100 mM pH 7.4 and 90 μl NADP-regenerating system. The reaction was initiated by the addition of 20 μl of test compound (in 20% acetonitrile) to the preincubated microsomes/buffer mix at 37° C. 200 μl samples were removed from the incubation after 0, 5, 10, and 30 minutes and processed for ethyl acetate extraction as described above. Negative controls using boiled microsomes (boiling water bath, 25 minutes) without regenerating system were run in parallel. The amount of compound in the samples is expressed as percentage of remaining compound compared to time point zero (=100%). These percentages were plotted against the corresponding time points. Intrinsic clearance (CLint) and half-life (t1/2) estimates were determined using the rate of parent disappearance and following formula (1) and (2). (1) CLint=(−k)×V×fu. (2) t1/2=ln 2/−k. Where CLint=intrinsic clearance [μl/min/mg protein], t1/2=half life [min], k=slope from the linear regression of log [test compound] versus time plot [1/min]. V=6666.7; fu=unbound fraction in the blood. Applying this protocol gave microsomal stabilities for examples and reference compounds as listed below in Table 6: […]

solubility at 20 h [1] [µM] | fraction unbound at 1 h, 1 µM [2] | half-life [3] [min] | microsomal CLint [3] [µL/min/mg] | SMILES
72.4 (≈ 36.1 µg/mL) | 0.007 | 22 | 207 | CC(C)c1onc(-c2c(Cl)cccc2Cl)c1COc1ccc(Oc2ccc(C(=O)O)cc2)cc1 [Compound A, reference compound]
188 (≈ 96.5 µg/mL) | 0.021 | 30 | 153 | Cc1cc(OCc2c(-c3c(Cl)cccc3Cl)noc2C(C)C)cnc1Oc1ccc(C(=O)O)cc1 [Example 3, 4-(5-((3-(2,6-Dichlorophenyl)-5-isopropylisoxazol-4-yl)methoxy)-3-methylpyridin-2-yloxy)benzoic acid]
